From US20260125371A1, “METHOD FOR INHIBITING CLOSTRIDIOIDES DIFFICILE SPORE GERMINATION” (UNIVERSITY OF NOTRE DAME DU LAC, priority 2022, published 2026)
Like-named read-outs stand apart in the source and are kept apart here.

Tests used:
[1] = system: S. epidermidis ATCC 35547; experiment: MIC against S. epidermidis; type: cell-based; details: Staphylococcus epidermidis, ATCC35547
B. cereus ATCC 13061 = experiment: MIC against B. cereus; type: cell-based; details: Bacillus cereus, ATCC13061
S. oralis ATCC 9811 = experiment: MIC against S. oralis; type: cell-based; details: Streptococcus oralis, ATCC9811
C. difficile strains = experiment: MIC (microdilution) against panel of 101 C. difficile strains; type: cell-based, Clostridioides difficile
[2] = system: Bacteroides fragilis HM-709; experiment: MIC against Bacteroides fragilis (gut bacteria); type: cell-based; details: HM709
[3] = system: Corynebacterium spp. HM-784; experiment: MIC against Corynebacterium spp. (gut bacteria); type: cell-based; details: SPP.HM784
[4] = system: Lactobacillus reuteri HM-102; experiment: MIC against Lactobacillus reuteri (gut bacteria); type: cell-based; details: Limosilactobacillus reuteri, HM102
[5] = system: extended panel of Gram-positive bacteria; experiment: MIC range over extended panel of Gram-positive bacteria; type: cell-based; details: other than C. difficile
C. difficile ATCC 43255 = type: cell-based, Clostridioides difficile
[6] = system: C. difficile strain ATCC43255 spores; experiment: Spore germination inhibition assay; type: cell-based, Clostridioides difficile; details: Clostridioides difficile, 1 h, compound 45 μM, germinant 6 mM taurocholate and 12 mM glycine, OD600 over 60 min, duplicate
[7] = C. difficile strains of Table 4

Cc1ncc([N+](=O)[O-])n1CCO [MTZ, metronidazole]
> 128 µg/mL: MIC [1]
> 256 µg/mL: MIC (B. cereus ATCC 13061)

CCc1c(Cl)c(O)c(Cl)c(O)c1C(=O)O[C@H]1[C@H](O)[C@H](OC)[C@H](OC/C2=C\C=C\C[C@H](O)/C(C)=C/[C@H](CC)[C@@H](O[C@@H]3OC(C)(C)[C@@H](OC(=O)C(C)C)[C@H](O)[C@@H]3O)/C(C)=C/C(C)=C/C[C@@H]([C@@H](C)O)OC2=O)O[C@@H]1C [FDX, fidaxomicin]
32 µg/mL: MIC (S. oralis ATCC 9811)

O=[N+]([O-])c1cnc(-c2nc(-c3ccc(OC4CCCC4)cc3)no2)[nH]1 [Compound 57, 3-(4-(Cyclopentyloxy)phenyl)-5-(4-nitro-1H-imidazol-2-yl)-1,2,4-oxadiazole]
< 10%: inhibition at 45 µM [6]
8 passages: passages after which MIC increased 2-fold (C. difficile ATCC 43255; 2-fold MIC increase)
8 fold: increase in MIC on serial passage (C. difficile ATCC 43255; whole serial passage experiment (30 passages))
not active: activity against Gram-positive bacteria [5]
14 passages: passages after which MIC increased 4-fold (C. difficile ATCC 43255; 4-fold MIC increase)
2 µg/mL: MIC (C. difficile strains; Clostridioides difficile, strain NR-49328) | MIC (C. difficile strains; Clostridioides difficile, strain RMA26675) | MIC (C. difficile strains; Clostridioides difficile, strain RMA27173)
20 passages: passages after which MIC increased 8-fold (C. difficile ATCC 43255; 8-fold MIC increase)
1 µg/mL: MIC90 (C. difficile strains; [7]) | MIC (C. difficile strains; Clostridioides difficile, strain HM-88) | MIC (C. difficile strains; Clostridioides difficile, strain NR-13433) | MIC (C. difficile strains; Clostridioides difficile, strain NR-32887) | MIC (C. difficile strains; Clostridioides difficile, strain NR-32888) | MIC (C. difficile strains; Clostridioides difficile, strain NR-32889) | MIC (C. difficile strains; Clostridioides difficile, strain NR-49288) | MIC (C. difficile strains; Clostridioides difficile, strain NR-49289) | MIC (C. difficile strains; Clostridioides difficile, strain NR-49290) | MIC (C. difficile strains; Clostridioides difficile, strain NR-49291) | MIC (C. difficile strains; Clostridioides difficile, strain NR-49295) | MIC (C. difficile strains; Clostridioides difficile, strain NR-49296) | MIC (C. difficile strains; Clostridioides difficile, strain NR-49297) | MIC (C. difficile strains; Clostridioides difficile, strain NR-49298) | MIC (C. difficile strains; Clostridioides difficile, strain NR-49299) | MIC (C. difficile strains; Clostridioides difficile, strain NR-49300) | MIC (C. difficile strains; Clostridioides difficile, strain NR-49303) | MIC (C. difficile strains; Clostridioides difficile, strain NR-49304) | MIC (C. difficile strains; Clostridioides difficile, strain NR-49311) | MIC (C. difficile strains; Clostridioides difficile, strain NR-49316) | MIC (C. difficile strains; Clostridioides difficile, strain NR-49317) | MIC (C. difficile strains; Clostridioides difficile, strain NR-49321) | MIC (C. difficile strains; Clostridioides difficile, strain NR-49324) | MIC (C. difficile strains; Clostridioides difficile, strain RMA23691) | MIC (C. difficile strains; Clostridioides difficile, strain RMA23828) | MIC (C. difficile strains; Clostridioides difficile, strain RMA27081) | MIC90 (C. difficile strains; Clostridioides difficile, 101 C. difficile strains, read-out: MIC90) | MIC90 (C. difficile strains; Clostridioides difficile, 101 C. difficile strains, read-out: MIC90 (101 strains))
> 128 µg/mL: MIC [3] | MIC [4]
0.5 µg/mL: IMIC50 (101 strains) (C. difficile strains; 101 C. difficile strains) | MIC50 (C. difficile strains; [7]) | MIC (C. difficile strains; Clostridioides difficile, ATCC43598, strain ATCC43598) | MIC (C. difficile strains; Clostridioides difficile, strain HM-89) | MIC (C. difficile strains; Clostridioides difficile, strain HM-745) | MIC (C. difficile strains; Clostridioides difficile, strain HM-746) | MIC (C. difficile strains; Clostridioides difficile, strain NR49294) | MIC (C. difficile strains; Clostridioides difficile, strain NR49318) | MIC (C. difficile strains; Clostridioides difficile, strain NR-13427) | MIC (C. difficile strains; Clostridioides difficile, strain NR-13428) | MIC (C. difficile strains; Clostridioides difficile, strain NR-13429) | MIC (C. difficile strains; Clostridioides difficile, strain NR-13430) | MIC (C. difficile strains; Clostridioides difficile, strain NR-13431) | MIC (C. difficile strains; Clostridioides difficile, strain NR-13435) | MIC (C. difficile strains; Clostridioides difficile, strain NR-13436) | MIC (C. difficile strains; Clostridioides difficile, strain NR-13437) | MIC (C. difficile strains; Clostridioides difficile, strain NR-32882) | MIC (C. difficile strains; Clostridioides difficile, strain NR-32883) | MIC (C. difficile strains; Clostridioides difficile, strain NR-32884) | MIC (C. difficile strains; Clostridioides difficile, strain NR-32885) | MIC (C. difficile strains; Clostridioides difficile, strain NR-32886) | MIC (C. difficile strains; Clostridioides difficile, strain NR-32891) | MIC (C. difficile strains; Clostridioides difficile, strain NR-49277) | MIC (C. difficile strains; Clostridioides difficile, strain NR-49278) | MIC (C. difficile strains; Clostridioides difficile, strain NR-49279) | MIC (C. difficile strains; Clostridioides difficile, strain NR-49282) | MIC (C. difficile strains; Clostridioides difficile, strain NR-49283) | MIC (C. difficile strains; Clostridioides difficile, strain NR-49284) | MIC (C. difficile strains; Clostridioides difficile, strain NR-49285) | MIC (C. difficile strains; Clostridioides difficile, strain NR-49286) | MIC (C. difficile strains; Clostridioides difficile, strain NR-49293) | MIC (C. difficile strains; Clostridioides difficile, strain NR-49301) | MIC (C. difficile strains; Clostridioides difficile, strain NR-49306) | MIC (C. difficile strains; Clostridioides difficile, strain NR-49307) | MIC (C. difficile strains; Clostridioides difficile, strain NR-49308) | MIC (C. difficile strains; Clostridioides difficile, strain NR-49309) | MIC (C. difficile strains; Clostridioides difficile, strain NR-49312) | MIC (C. difficile strains; Clostridioides difficile, strain NR-49313) | MIC (C. difficile strains; Clostridioides difficile, strain NR-49314) | MIC (C. difficile strains; Clostridioides difficile, strain NR-49315) | MIC (C. difficile strains; Clostridioides difficile, strain NR-49320) | MIC (C. difficile strains; Clostridioides difficile, strain NR-49323) | MIC (C. difficile strains; Clostridioides difficile, strain NR-49326) | MIC (C. difficile strains; Clostridioides difficile, strain NR-49329) | MIC50 (C. difficile strains; Clostridioides difficile, 101 C. difficile strains, read-out: MIC50)
128 µg/mL: MIC [2]
0.125 µg/mL: MIC (C. difficile strains; Clostridioides difficile, BAA1804, strain BAA-1804) | MIC (C. difficile strains; Clostridioides difficile, BAA1812, strain BAA-1812) | MIC (C. difficile strains; Clostridioides difficile, BAA1814, strain BAA-1814) | MIC (C. difficile strains; Clostridioides difficile, BAA1870, strain BAA-1870) | MIC (C. difficile strains; Clostridioides difficile, C. difficile 24531, resistant to VAN) | MIC (C. difficile strains; Clostridioides difficile, C. difficile NR49292) | MIC (C. difficile strains; Clostridioides difficile, C. difficile NR49305) | MIC (C. difficile strains; Clostridioides difficile, strain NR49292) | MIC (C. difficile strains; Clostridioides difficile, strain NR49305) | MIC (C. difficile strains; Clostridioides difficile, strain NR-13434) | MIC (C. difficile strains; Clostridioides difficile, strain NR-13553) | MIC (C. difficile strains; Clostridioides difficile, strain NR-32890) | MIC (C. difficile strains; Clostridioides difficile, strain NR-32904) | MIC (C. difficile strains; Clostridioides difficile, strain RMA24531) | MIC (C. difficile strains; Clostridioides difficile, strain RMA24923)
0.25 µg/mL: MIC (C. difficile strains; Clostridioides difficile, BAA1801, strain BAA-1801) | MIC (C. difficile strains; Clostridioides difficile, C. difficile NR49302) | MIC (C. difficile strains; Clostridioides difficile, C. difficile NR49310) | MIC (C. difficile strains; Clostridioides difficile, strain HM-747) | MIC (C. difficile strains; Clostridioides difficile, strain NR49302) | MIC (C. difficile strains; Clostridioides difficile, strain NR49310) | MIC (C. difficile strains; Clostridioides difficile, strain NR-13438) | MIC (C. difficile strains; Clostridioides difficile, strain NR-32892) | MIC (C. difficile strains; Clostridioides difficile, strain NR-32895) | MIC (C. difficile strains; Clostridioides difficile, strain NR-32896) | MIC (C. difficile strains; Clostridioides difficile, strain NR-32897) | MIC (C. difficile strains; Clostridioides difficile, strain NR-32900) | MIC (C. difficile strains; Clostridioides difficile, strain NR-32903) | MIC (C. difficile strains; Clostridioides difficile, strain NR-49280) | MIC (C. difficile strains; Clostridioides difficile, strain NR-49281) | MIC (C. difficile strains; Clostridioides difficile, strain NR-49287) | MIC (C. difficile strains; Clostridioides difficile, strain NR-49319) | MIC (C. difficile strains; Clostridioides difficile, strain NR-49325) | MIC (C. difficile strains; Clostridioides difficile, strain NR-49327)
